The results in this text go back to patent US12606561B2, “Substituted pyrazolo[1,5-a][1,3,5]triazines as CDK inhibitors” (QURIENT CO., LTD., priority 2018, dated 2026).

The target in one test is T1, CDK5/p25 (Homo sapiens, UniProt Q00535).
T1 construct: purchased Invitrogen PR8543B
The experiment in a line: Enzymatic assay for CDK5 (LANCE Ultra kinase assay, FRET based). Type of test: biochemical. Particulars: ATP at Km. In short, it runs like this:
(§1)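 Compounds tested as 8 doses in 4-fold steps against CDK2/Cyclin A ([…]) or CDK5/p25 ([…]), with ATP at its Km and 68 nM ULight-MBP substrate. After 60 min at 23° C., EDTA plus Eu-labelled anti-phospho-MBP added; TR-FRET (615/665 nm) read after another 60 min.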
(In general: TR-FRET usually uses a lanthanide donor and a delayed reading to cut background.)

The next test has as its target T2, CDK2/Cyclin A (Homo sapiens, UniProt P24941).
T2 construct: purchased Invitrogen PV6290
The test can be described thus: Enzymatic assay for CDK2 (LANCE Ultra kinase assay, FRET based). Particulars: ATP at Km. Type of test: biochemical. In short, it runs like this:
as §1

A further test concerns MV4-11. The test can be described thus: Cellular MV4-11 viability assay (CellTiter-Glo, 72 hours). Type of test: cell-based. The settings on record: Homo sapiens; MV4-11 cells. In short, it runs like this:
(§2)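 Cells in RPMI-1640 with 10% FBS were seeded (MV4-11 1×10^4, OVCAR-3 5×10^3, A2780 1×10^3 cells/well) and treated 24 h later with compound at 0.0015–10 uM, final DMSO under 0.1%. After 72 h at 37 °C, viability was read by CellTiter-Glo luminescence, in duplicate.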

The next test relates to OVCAR-3. The test can be described thus: OVCAR-3 viability assay (CellTiter-Glo, 72 hours). Type of test: cell-based. Particulars: Homo sapiens; OVCAR-3 cells. In short, it runs like this:
as §2

The next test deals with T3, CDK7/Cyclin H/MNAT1 (Homo sapiens, UniProt P50613).
T3 construct: purchased Invitrogen PR6749B
T3 sequence (P50613 whole entry): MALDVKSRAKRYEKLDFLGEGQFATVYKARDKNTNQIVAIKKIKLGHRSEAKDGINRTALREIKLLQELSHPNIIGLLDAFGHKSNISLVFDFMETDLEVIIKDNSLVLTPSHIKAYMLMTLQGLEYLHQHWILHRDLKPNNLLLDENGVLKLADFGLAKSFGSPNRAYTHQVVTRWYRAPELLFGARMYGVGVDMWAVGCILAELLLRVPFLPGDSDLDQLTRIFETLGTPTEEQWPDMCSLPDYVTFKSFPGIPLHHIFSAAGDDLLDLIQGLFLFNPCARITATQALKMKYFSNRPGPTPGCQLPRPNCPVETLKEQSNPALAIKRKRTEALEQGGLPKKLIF
T3 sequence (P51946 whole entry partner): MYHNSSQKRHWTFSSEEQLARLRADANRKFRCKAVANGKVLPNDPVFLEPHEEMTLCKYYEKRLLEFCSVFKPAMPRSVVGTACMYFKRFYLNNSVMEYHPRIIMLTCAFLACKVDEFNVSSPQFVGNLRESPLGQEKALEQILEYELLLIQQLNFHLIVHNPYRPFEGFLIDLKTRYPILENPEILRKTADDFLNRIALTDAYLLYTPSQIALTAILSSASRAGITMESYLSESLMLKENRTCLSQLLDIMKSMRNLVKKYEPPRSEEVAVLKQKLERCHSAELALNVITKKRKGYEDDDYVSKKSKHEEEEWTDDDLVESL
T3 sequence (P51948 whole entry partner): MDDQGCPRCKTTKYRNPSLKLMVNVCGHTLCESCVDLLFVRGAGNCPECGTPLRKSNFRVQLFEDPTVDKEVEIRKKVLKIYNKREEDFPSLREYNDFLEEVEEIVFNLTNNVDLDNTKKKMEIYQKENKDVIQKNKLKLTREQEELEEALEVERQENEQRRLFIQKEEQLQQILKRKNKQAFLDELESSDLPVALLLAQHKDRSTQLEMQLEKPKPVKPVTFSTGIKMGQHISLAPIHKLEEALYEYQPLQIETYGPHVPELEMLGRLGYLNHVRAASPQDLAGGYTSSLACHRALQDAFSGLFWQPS
The experiment in a line: Enzymatic assay for CDK7 (LANCE Ultra kinase assay, FRET based). The class given is biochemical. The settings on record: for IC50: ATP at Km. In short, it runs like this: (§3)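 TR-FRET (LANCE Ultra) kinase assays with a ULight-labelled peptide substrate and a Europium-labelled anti-phospho antibody. ATP was set at its Km for each kinase. Inhibition was measured on purified CDK/cyclin complexes: CDK7/Cyclin H/MNAT1 and CDK1/Cyclin B.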

For a further test, the target named is T4, CDK1/Cyclin B (Homo sapiens, UniProt P06493).
T4 construct: purchased Invitrogen PR4768C
T4 sequence (P06493 whole entry): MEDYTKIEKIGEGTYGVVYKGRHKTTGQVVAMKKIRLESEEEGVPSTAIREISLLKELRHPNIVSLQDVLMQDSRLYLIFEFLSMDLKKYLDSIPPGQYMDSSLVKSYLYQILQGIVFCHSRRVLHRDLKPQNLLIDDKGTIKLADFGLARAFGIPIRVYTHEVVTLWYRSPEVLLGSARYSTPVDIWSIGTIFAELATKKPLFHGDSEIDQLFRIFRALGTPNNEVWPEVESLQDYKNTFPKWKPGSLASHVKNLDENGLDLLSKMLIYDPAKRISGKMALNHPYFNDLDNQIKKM
T4 sequence (P14635 whole entry partner): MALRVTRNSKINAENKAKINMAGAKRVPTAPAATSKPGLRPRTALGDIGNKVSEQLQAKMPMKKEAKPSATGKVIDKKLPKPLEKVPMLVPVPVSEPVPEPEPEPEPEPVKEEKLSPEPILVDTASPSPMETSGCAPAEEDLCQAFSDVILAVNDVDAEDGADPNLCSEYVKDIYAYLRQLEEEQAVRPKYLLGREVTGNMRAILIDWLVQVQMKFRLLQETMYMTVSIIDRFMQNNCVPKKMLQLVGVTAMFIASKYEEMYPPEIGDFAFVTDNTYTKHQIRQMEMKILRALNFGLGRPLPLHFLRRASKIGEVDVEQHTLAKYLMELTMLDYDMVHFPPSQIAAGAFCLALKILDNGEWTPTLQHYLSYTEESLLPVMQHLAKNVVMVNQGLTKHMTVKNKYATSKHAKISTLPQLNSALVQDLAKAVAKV
The test can be described thus: Enzymatic assay for CDK1 (LANCE Ultra kinase assay, FRET based). The settings on record: ATP at Km; read-out: CDK1 enzymatic activity IC50. Type of test: biochemical. In short, it runs like this: as §3

A further test concerns A2780. The test can be described thus: A2780 viability assay (CellTiter-Glo, 72 hours). The class given is cell-based. The settings on record: Homo sapiens; A2780 cells. In short, it runs like this:
as §2
For orientation: ATP-based viability assays read luminescence as a measure of living cells.

Another test deals with H460. The experiment in a line: Cellular H460 viability assay (CellTiter-Glo, 72 hours). Type of test: cell-based. Particulars: Homo sapiens, NCI-H460; H460 cells. The procedure:
All cell lines were routinely tested for mycoplasma.
To effect of the CDK7 inhibitor to inhibit the growth of target cancer cells, viability assay were conducted a 72 hour time period. Briefly, the candidate cell line was plated in 96 well plate at the following density of cells respectively. 1×10^4 cells/well for MV4-11, 5×10^3 for H460 and OVCAR-3, and 1×10^3 for A2780. […] DMSO solvent without compound served as a control and final DMSO concentration lest than 0.1%. After 72 hours of incubation at 37° C., 5% CO2 incubator, cells were analyzed for the viability using the CellTiter-Glo Luminescent Cell Viability Assay (Promega, Cat #G7570). All viability assays were performed in duplicate and Luminescence was read using an Envision (Perkin Elmer, USA). Data was analyzed using XLfit software.

T1 sequence (Q00535 whole entry): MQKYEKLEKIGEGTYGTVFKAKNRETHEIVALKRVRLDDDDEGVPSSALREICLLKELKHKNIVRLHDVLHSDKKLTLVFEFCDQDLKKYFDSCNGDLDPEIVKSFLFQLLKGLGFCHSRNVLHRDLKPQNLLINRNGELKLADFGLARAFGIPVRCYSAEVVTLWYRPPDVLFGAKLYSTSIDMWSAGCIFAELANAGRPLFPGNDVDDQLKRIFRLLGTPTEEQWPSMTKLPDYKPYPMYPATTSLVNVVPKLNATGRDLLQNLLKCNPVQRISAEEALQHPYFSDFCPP
T1 sequence (Q15078 99-307 partner limits assumed): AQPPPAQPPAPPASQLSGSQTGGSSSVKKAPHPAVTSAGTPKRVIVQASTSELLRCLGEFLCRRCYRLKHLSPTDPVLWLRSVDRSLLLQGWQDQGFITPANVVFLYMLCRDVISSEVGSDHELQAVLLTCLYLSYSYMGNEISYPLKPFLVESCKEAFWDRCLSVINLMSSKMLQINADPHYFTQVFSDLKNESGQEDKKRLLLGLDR

In the case of `CC(C)c1cnn2c(NCc3ccccc3-c3nccc4cc(NC(=O)/C=C/CN(C)C)ccc34)nc(NC[C@H]3CCNC[C@@H]3O)nc12` [Compound 26], the IC50 at CDK5/p25 is more than 1 µM; against CDK2/Cyclin A, more than 1 µM; in the test on MV4-11, less than 1 µM; in the test with OVCAR-3, less than 1 µM; against CDK7/Cyclin H/MNAT1, less than 0.1 µM; on CDK1/Cyclin B, more than 1 µM. Moreover, the IC50 with A2780 and with H460 was less than 1 µM each time. For the same molecule, at CDK7/Cyclin H/MNAT1, the “CDK1/CDK7: Selectivity of CDK7 inhibition over CDK1 inhibition” value is “A (A indicates [fold] > 500)”. Also, the “CDK2/CDK7: Selectivity of CDK7 inhibition over CDK2 inhibition” value at CDK7/Cyclin H/MNAT1 is “A (A indicates [fold] > 500)”. Further, on CDK7/Cyclin H/MNAT1, the “CDK5/CDK7: Selectivity of CDK7 inhibition over CDK5 inhibition” value is “A (A indicates [fold] > 500)”.

With `CC(C)c1cnn2c(NCc3ccccc3-c3nccc4cc(NC(=O)/C=C/CN(C)C)ccc34)nc(N[C@H]3CC[C@H](O)CC3)nc12` [Compound 27], the IC50 on CDK5/p25 is more than 1 µM; against CDK2/Cyclin A, more than 1 µM; in the test with MV4-11, less than 1 µM; in the test with OVCAR-3, less than 1 µM; against CDK7/Cyclin H/MNAT1, less than 0.1 µM; at CDK1/Cyclin B it was more than 1 µM. Further, the IC50 with A2780 and in the test with H460 was less than 1 µM each time. Besides, the “CDK1/CDK7: Selectivity of CDK7 inhibition over CDK1 inhibition” value on CDK7/Cyclin H/MNAT1 is “B (B indicates 50 < [fold] ≤ 500)”. Further, on CDK7/Cyclin H/MNAT1, the “CDK2/CDK7: Selectivity of CDK7 inhibition over CDK2 inhibition” value was “B (B indicates 50 < [fold] ≤ 500)”. Moreover, the “CDK5/CDK7: Selectivity of CDK7 inhibition over CDK5 inhibition” value on CDK7/Cyclin H/MNAT1 was “B (B indicates 50 < [fold] ≤ 500)”.

As a reminder, the IC50 is the point on the concentration scale where inhibition reaches its midpoint.
